# Counter-ions that a name gives are not always drawn.
# Columns and labels:
# Kuramochi cells = assay: IncuCyte Kuramochi Assay (cell proliferation); assay type: cell-based; conditions: 72 h, Kuramochi cells labeled with mApple-H2B, cell count, read-out: IncuCyte - Kuramochi RB-WT: IC50
# Method in brief: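 Cells imaged at 0 and 72 h after compound treatment (10 points, ½ log dilution, 20 μM top), with fluorescent nuclei counted. Fold change in count was normalized to DMSO wells and fitted to dose-response curves to give GI50.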
# CDK2/Cyclin E1 [1] = biological target: T1, CDK2/Cyclin E1 (Homo sapiens, UniProt P24941); assay: Caliper Assay (LabChip EZ Reader mobility shift assay), inhibition of CDK2/Cyclin E1 activity; assay type: biochemical; conditions: 2.5 nM CDK2/Cyclin E1(14-475), 100 μM ATP, 30 min preincubation; read-out: Caliper Assay (CDK2/CCNE1): IC50
# T1 construct: purchased 14-475
# Method in brief: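 Compounds were preincubated 30 min with CDK2/Cyclin E1(14-475), then run for 100 min with 2.5 nM enzyme, 100 μM ATP and 1.5 μM 5-FAM-QSPKKG peptide in HEPES pH 7.5 (final). Reactions were EDTA-stopped and substrate-to-product conversion read by mobility shift. IC50 came from a four-parameter fit.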
# CDK2/Cyclin E1 [2] = biological target: T1, CDK2/Cyclin E1; assay: ADPGLO (CDK2/E1-37 C), ADP-Glo Luminescent Kinase Assay; assay type: biochemical; conditions: 0.18 nM CDK2/Cyclin E1, 100 μM ATP, Histone H1, 37° C.
# Method in brief: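 Human CDK2/Cyclin E1 preincubated with inhibitor 60 min at 37 °C, then reacted 90 min at 37 °C with final 0.18 nM enzyme, 100 μM ATP, 1.5 μM Histone H1 in HEPES pH 7.5 buffer. ADP formed read by ADP-Glo luminescence; IC50 from four-parameter fit.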
# [3] = tested on: mouse models of polycystic kidney disease; conditions: Bukanov et al., Nature 2006; cited from earlier work
SMILES,IC50 (CDK2/Cyclin E1 [1]) [µM],IC50 (CDK2/Cyclin E1 [2]) [µM],IC50 (Kuramochi cells) [µM],arrest of cystic kidney disease [3]
O=C(c1cn[nH]c1C(F)(F)F)N1CC(c2nnc(C(F)(F)c3ccc(Cl)c(Cl)c3)o2)C2(CN(CC3CCCO3)C2)C1 (stereo not shown) [I-141],> 100,> 10,> 10,–
O=C(c1cc(C(F)(F)F)n[nH]1)N1CC(c2nnc(C(F)(F)c3ccc(Cl)c(Cl)c3)o2)C2(CN(CC3CCCO3)C2)C1 (stereo not shown) [I-142],> 100,> 10,> 10,–
O=C(c1cn[nH]c1)N1CC(c2nnc(C(F)(F)c3ccc(Cl)c(Cl)c3)o2)C2(CN(CC3CCCO3)C2)C1 (stereo not shown) [I-143],> 100,> 10,> 10,–
CC[C@H](CO)Nc1nc(NCc2ccccc2)c2ncn(C(C)C)c2n1 [roscovitine],–,–,–,effective arrest of cystic kidney disease

# The next lines start with results.
IC50 (CDK2/Cyclin E1 [1]) [µM],IC50 (CDK2/Cyclin E1 [2]) [µM],SMILES,IC50 (Kuramochi cells) [µM],arrest of cystic kidney disease [3]
> 100,> 100,"O=C(c1ccn[nH]1)N1CC(c2nnc(C(F)(F)c3ccc(Cl)c(Cl)c3)o2)C2(CN(CC3CCCO3)C2)C1 (stereo not shown) [I-139, (8-(5-((3,4-dichlorophenyl)difluoromethyl)-1,3,4-oxadiazol-2-yl)-2-((tetrahydrofuran-2-yl)methyl)-2,6-diazaspiro[3.4]octan-6-yl)(1H-pyrazol-5-yl)methanone formate]",> 10,–
> 10,> 10,O=C(c1cnc(O)cn1)N1CC(c2nnc(C(F)(F)c3ccc(Cl)c(Cl)c3)o2)C2(CN(CC3CCCO3)C2)C1 (stereo not shown) [I-140],> 10,–

# — patent US20260151375A1, “CDK2 INHIBITORS AND METHODS OF USING THE SAME” (Cedilla Therapeutics, Inc., priority 2022, published 2026)
